In PMC3984256, “A PCNA-Derived Cell Permeable Peptide Selectively Inhibits Neuroblastoma Cell Growth” (PLoS ONE, 2014):
Where a SMILES comes first, the peptide text is derived from it. [ ]: non-standard residue; d: D form.

What was measured:
Type in all cases: cell-based, human
[1] = system: PCNA and FEN1 co-localization in SK-N-AS NB cells; test: PCNA/FEN1 co-localization, immunofluorescence; details: synchronized, 30 µM peptide 6 h after mimosine release
Procedure: Cells were seeded at 1×10^5/ml onto a chamber slide and were allowed to attach overnight. To analyze the interaction of PCNA with FEN1, LIGI, or Pol ä, we first synchronize cells at the G1/S boundary. The synchronization is achieved by starving cells in medium containing 0.25% FBS for 24 h. Cells were further cultured in the complete medium containing 400 µM of mimosine for 24 h. To release cells into S phase, cells were washed and incubated in mimosine-free medium containing 30 µM R9-caPep or R9-srbPep for 6 h. We pre-determined that the majority of cells were in the S-phase 6 h after mimosine was removed (data not shown). Cells were fixed in ice-cold methanol:acetone (50%:50%) for 10 min or in 4% paraformaldehyde for 20 min at room temperature. Cells were incubated with a goat polyclonal anti-PCNA antibody (Santa Cruz) and a mouse monoclonal anti-FEN1 antibody (Santa Cruz), a mouse anti-POLD3 antibody (Sigma, St. Louis, MO), or a mouse anti-LIGI antibody (Abcam, Cambridge, MA) for 1 h at room temperature. After being washed with PBS, cells were incubated with Alexa Fluor 488 conjugated anti-mouse IgG and Alexa Fluor 555 conjugated anti-goat IgG antibodies (Invitrogen, Grand Island, NY) for 1 h. Cells were mounted in Vectashield with DAPI (Vector Labs, Burlingame, CA) and visualized by a confocal microscope.

[2] = system: Rad51 foci in SK-N-BE(2)c cells; test: Rad51 foci immunofluorescence after γ-irradiation; details: 2 h peptide pretreatment, 5 Gy
Procedure: To study DNA damage and repair, attached cells were pretreated with the peptides for 2 h and were then ã-irradiated (5 Gy). After irradiation, cells were cultured in the presence of the peptides for the indicated time. For analyzing ãH2A.X foci formation, cells were fixed in a solution of methanol and acetone (70%:30% v/v) for 15 min at −20°C. The slides were air-dried for storage and rehydrated in PBS prior to immunostaining. Cells were stained by a mouse monoclonal antibody specific to ãH2A.X (Millipore, Billerica, MA) followed by an Alexa Fluor 488 conjugated anti-mouse IgG antibody. For analyzing Rad51 foci formation, cells were fixed in PBS buffered 4% paraformaldehyde at room temperature for 15 min. After being washed twice by PBS, cells were permeabilized in PBS containing 0.5% triton for 15 min on ice. The fixed and permeabilized cells were stained with a rabbit polyclonal antibody raised against the human Rad51 (Santa Cruz) followed by an Alexa Fluor 488 conjugated anti-rabbit IgG antibody. Stained cells were visualized and imaged by a confocal microscope.

SK-N-BE(2)c cells = test: TUNEL apoptosis assay, SK-N-BE(2)c; details: 40 µM, 48 h, six fields
Procedure: (§1) To measure cell growth, cells were seeded at 3×10^4/ml. After being allowed to attach overnight, cells were treated with various concentrations of the peptides for 72 h. Cell growth was measured by the CellTitor-Glo assay (Promega, Madison, WI) according to manufacturer's instruction. To measure apoptosis, cells were seeded at 1×10^5/ml onto a chamber slide. Once attached, cells were treated with the peptides for 48 h. Cells were fixed and analyzed by a TUNEL assay using the TMR red in situ cell death detection kit (Roche Diagnostics, Indianapolis, IN).

[3] = system: non-malignant 7SM0032 cells; test: TUNEL apoptosis assay, 7SM0032; details: 7SM0032, same treatment (40 µM, 48 h), vs NB cells
Procedure: as §1

**Q.** Which “FEN1 co-localization with PCNA foci” value [1] does the source give for `CC[C@H](C)[C@H](NC(=O)CNC(=O)[C@H](CC(C)C)NC(=O)[C@H](CS)NC(=O)[C@H](CS)NC(=O)[C@@H](CCCNC(=N)N)NC(=O)[C@@H](CCCNC(=N)N)NC(=O)[C@@H](CCCNC(=N)N)NC(=O)[C@@H](CCCNC(=N)N)NC(=O)[C@@H](CCCNC(=N)N)NC(=O)[C@@H](CCCNC(=N)N)NC(=O)[C@@H](CCCNC(=N)N)NC(=O)[C@@H](CCCNC(=N)N)NC(=O)[C@H](N)CCCNC(=N)N)C(=O)N1CCC[C@H]1C(=O)N[C@@H](CCC(=O)O)C(=O)N[C@@H](CCC(N)=O)C(=O)N[C@@H](CCC(=O)O)C(=O)N[C@@H](Cc1ccc(O)cc1)C(=O)O` [R9-caPep] (H-[dR][dR][dR][dR][dR][dR][dR][dR][dR]CCLGIPEQEY-OH; N-terminus and C-terminus assumed) here?
**A.** Its value is “didn't appear to overlap the PCNA foci”.

**Q.** What about the “number of Rad51-positive cells at 4 h” value ([2]; 4 h after irradiation) of the same compound?
**A.** Its value is “reduced the number of Rad51-positive cells at 4 h after ã-irradiation”.

**Q.** And the “Rad51 background staining at 48 h” value ([2]; 48 h after irradiation)?
**A.** The value was “strong and diffused background staining of Rad51”.

**Q.** And the “Rad51 foci at 48 h” value ([2]; 48 h after irradiation)?
**A.** Its value is “Rad51 foci remain visible”.

**Q.** What about the “apoptosis: TUNEL positivity” value (SK-N-BE(2)c cells) of the same compound?
**A.** Its value is “increased TUNEL positivity”.

**Q.** And the “effect on cell survival in non-malignant cells” value [3]?
**A.** The value was “significantly less effect on cell cycle progression and cell survival”.
